Experimental data: patent publication US12582616B2, “Molecular targets for modulation of dissociative and associative states” (The Board of Trustees of the Leland Stanford Junior …, priority 2020, dated 2026)
Entries after “also recorded” stand apart in the source; their conditions may differ.

Tests used:
[1] = test system: retrosplenial cortex (RSP); experiment: Widefield imaging of cortical activity in GCaMP6s mice
Source text: We recorded multiregional neuronal activity by leveraging widefield microscopy, a cleared skull preparation, and atlas registration in GCaMP6s-expressing mice (FIGS. 1A-1C)^6,8,15.
As described^8, mice were anesthetized with isoflurane, the scalp was removed, the skull cleaned and dried, and a custom head-plate was cemented to contacts over the cerebellum and in front of the olfactory bulb. The skull was then covered in a thin layer of cyanoacrylate glue (Apollo 2000, Cyberbond), clear dental acrylic (Ortho-Jet, Lang Dental), and clear nail polish (Electron Microscopy Services). […] (0.1 mg/kg) was injected subcutaneously for pain management. […] Imaging was performed on a custom-built fluorescence microscope designed for high light collection efficiency and large field of view. […] Alternating 410 nm and 488 nm illumination for non-Ca^2+ dependent artifact removal was controlled using a microcontroller (Arduino) slaved to the frame output trigger of the camera.
Analysis was performed using custom MATLAB (MathWorks) scripts. Widefield imaging videos were registered to a 2D top-projection atlas generated from the annotated Allen Brain Atlas volume, version CCFv2, in MATLAB (MathWorks), using an affine transformation computed from four manually selected control points. Each video was DF/F normalized, using the median for each pixel over the entire time series as F. The 410 nm channel was then temporally smoothed using a moving average (width=400 ms). The smoothed 410 nm DF/F signal for each pixel was regressed onto the 488 nm DF/F signal for the corresponding pixel, and the regression coefficients were used to scale the 410 nm channel to the 488 nm channel. This scaled 410 nm DF/F signal was then subtracted from the 488 nm DF/F signal to produce a normalized signal for each pixel. For quantification, activity traces were extracted from points centered in five cortical regions (visual, somatosensory, parietal, motor, retrosplenial) on the left hemisphere of the brain. The video data was Gaussian smoothed spatially (radius=2 pixels).
Each trace (corresponding to either a fiber photometry signal, a cellular two-photon signal, a widefield regional centroid, a widefield pixel, an sEEG trace, or a smoothed spike rate Neuropixels trace) was z-scored, and the power spectral density (PSD) was then estimated using Welch's method (pwelch( ) in Matlab), with a window size of 10*fs (15*fs for human sEEG) where fs is the sampling rate of the signal. The average band power within a specified band (i.e. 1-3 Hz) was then computed by integrating the PSD estimate (bandpower in Matlab). […] Unless otherwise indicated, the PSD was computed across the time window from minutes 10 to 11 post-injection.

[2] = test system: mice; experiment: Righting reflex assay; assay type: in vivo, mouse
Source text: Righting Reflex Assay: Mice were held at the neck and tail, rotated to supine position on a flat surface, and quickly released. Time to right was quantified as moment of release to moment when all 4 legs touched the ground. A five second threshold was used to classify righting success (less than 5 seconds) from failure (more than 5 seconds). […] Illumination began for 30 seconds, and then the mouse was swiftly inverted onto the flat surface.

[3] = test system: retrosplenial cortex (RSP); experiment: Fiber photometry and widefield imaging of RSP, dose comparison; assay type: in vivo, mouse
Source text: A 405 nm and 470 nm LED illumination (Thorlabs) was combined (425 nm longpass, Thorlabs DMLP425) and coupled into a fiber optic patch cord (400 μm diameter, 0.48 NA, Doric Lenses) using a longpass dichroic (505 nm, Thorlabs DMLP505) and a fixed-focused coupler/collimator with a standard FC connector (F240FC-A, NA 0.51, f=7.9 mm)^47,48. Each illumination channel was frequency modulated using the sync output from a lock-in amplifier (SR810 DSP, Stanford Research Systems). GCaMP fluorescence was collected through the same patchcord and delivered through a bandpass emission filter (Semrock, FF01-520/35) onto a NewFocus 2151 femtowatt silicon photoreceiver (Newport, DC Low mode). […]
Analysis was performed using custom MATLAB (MathWorks) scripts. […] For quantification, activity traces were extracted from points centered in five cortical regions (visual, somatosensory, parietal, motor, retrosplenial) on the left hemisphere of the brain. […]
Each trace (corresponding to either a fiber photometry signal, a cellular two-photon signal, a widefield regional centroid, a widefield pixel, an sEEG trace, or a smoothed spike rate Neuropixels trace) was z-scored, and the power spectral density (PSD) was then estimated using Welch's method (pwelch( ) in Matlab), with a window size of 10*fs (15*fs for human sEEG) where fs is the sampling rate of the signal. […]

[4] = test system: mice; experiment: Hot plate test
Description: Hot Plate Test: Mice were placed on the hot plate (Bioseb), which was set to 55° C. and surrounded by a clear circular perimeter. Mouse activity was recorded using two cameras from different angles. The experiment ended when the mouse jumped to escape or 90 seconds had elapsed. Care was taken to clean and dry the hot plate apparatus between animals. For optogenetic experiments, mice were connected to patch cords and then returned to a holding cage. Illumination began 30 seconds before mice were placed on the hot plate.

[5] = test system: brain regions correlated with RSP; experiment: Simultaneous recording from four Neuropixels probes with i.p. drug delivery
Description: Mice were anesthetized with isoflurane, carefully leveled in a stereotaxic apparatus and their scalp and periosteum were removed. A 3% hydrogen peroxide in saline solution was used to clean the surface of the skull. A custom stainless steel headbar was leveled on the skull and attached using clear dental cement. After the cement had dried, targeted probe entry sites were stereotaxically marked on the cement layer with a permanent marker (Day 1: “mPFC”, 2.3AP, 0.6ML; “somatosensory”, −0.7AP, −4.0ML; “retrosplenial”, −2AP, −1 ML; “subiculum”, −3.5AP, 2.14ML; Day 2: “OFC”: 2.5AP, 1.5ML; “mPFC”: 2.3AP, −0.6ML; “retrosplenial”, −2AP, 1ML; “thalamus”, −1.5AP, −1.7ML). In part, they were selected to cover areas with known connectivity to the retrosplenial cortex. A 2 mm long insulated platinum-iridium wire was implanted centrally over the cerebellum, with the last several hundred microns bared to serve as an electrical reference.
Mice were acclimated to head fixation and the recording rig over several days before recording. Several hours before recording, mice were anesthetized for approximately 30 minutes each while small 1 mm craniotomies were made over four pre-marked areas. Craniotomies were kept clean of bone fragments and made such that bleeding was minimized. The skull was covered with a pool of saline and with Quik-Cast to protect and keep moist craniotomies before recording. Mice recovered in their homecages before recording. Immediately prior to recording set up, mice were very briefly anesthetized with isoflurane and implanted with an IV catheter system (BD Saf-T-Intima Closed IV Catheter System: 22G×3/4′, containing an integrated Y adaptor and safety lock) to their intraperitoneal cavity and affixed with glue. […] While still anesthetized, mice were headfixed and tubing was secured stably to a custom mouse holder by tape. Quik-Cast was removed from the skull, and craniotomies were briefly cleaned before being submerged in a pool of saline. […] The four acquisitions were synchronized using a common squarewave signal recorded for all probes and aligned to the nearest pulse edge. […]

[6] = 50 mg/kg ketamine, control mice of knockout experiment

In the case of CNC1(c2ccccc2Cl)CCCCC1=O (centres unmarked) [ketamine], the “magnitude of RSP rhythm on repeated days” value ([1]; five consecutive days) is reported as “exhibited similar magnitude across five consecutive days”, the “1-3 Hz oscillation localized to retrosplenial cortex (RSP), widefield imaging” value ([1]; i.p. injection, ketamine 50 mg/kg) is reported as “a 1-3 Hz oscillation emerged in retrosplenial cortex (RSP), but not in any other cortical region” and the “consciousness (spontaneous ambulation, response to external stimuli)” value ([2]; ketamine >=25 mg/kg, subanesthetic) is reported as “consciousness was maintained”. For the same compound, the “righting of postural inversion” value ([2]; ketamine, knockout and wild-type mice) was “all mice successfully-righted postural inversion”, the “1-3 Hz RSP oscillation” value ([3]; ketamine 13 mg/kg, listed as Ketamine) was “not 13 mg/kg” and the “1-3 Hz RSP oscillation” value ([3]; ketamine 25 mg/kg) was “rhythm at 25 mg/kg”. For the same compound, the “affective paw-licking, hot plate” value ([4]; 50 mg/kg ketamine, RSP Cre-virus in HCN1-KO mice) was “strikingly restored affective paw-licking”, the “affective paw-licking, hot plate” value [4, 6] was “abolished affective paw-licking” and the “reflexive paw-flicks, hot plate” value [4, 6] was “preserving reflexive paw-flicks”. For the same compound, the “affective/emotional defensive behavior (paw-lick), hot plate” value ([4]; ketamine 25 and 50 mg/kg) was “abolished affective/emotional”, the “motivational defensive behavior (jump-to-escape), hot plate” value ([4]; ketamine 25 and 50 mg/kg) was “abolished” and the “reflexive responses (paw-flick), hot plate” value ([4]; ketamine dose series up to 50 mg/kg) was “did not reduce reflexive responses”. The affective behavior ([4]; ketamine, GRIN1 knockouts) was “without recovery of affective behavior”, the dissociation-like behavioral effects ([4]; ketamine, HCN1 channels removed from retrosplenial cortex) was “selectively abolished both the ketamine-induced rhythm and dissociation-like behavioral effects; also recorded: did not fully elicit the dissociation-like behavioral effects” and the “correlations of brain regions with RSP” value ([5]; 8-12 min after 50 mg/kg ketamine i.p.) was “correlations with RSP were reduced”. The “correlation of laterodorsal and anteroventral thalamus with each other and RSP” value ([5]; subanesthetic ketamine) was “became more-strongly correlated to each other and RSP” and the “rhythmicity of specific subcortical regions” value ([5]; subanesthetic ketamine) was “exhibiting increased rhythmicity”.
